Legend:
[1] = test system: A549-FAPI xenograft tumors; experiment: Micro-PET/CT imaging, A549-FAPI xenograft tumors; assay type: in vivo, BALB/c nude mice
Protocol: BALB/c nude mice used in this study were obtained from the Animal Center of Sichuan University. Tumor-bearing mouse models were established by the subcutaneous injection of 100 µL of PBS suspension containing approximately 1*10^6 tumor cells to the body side of the subjects. The tumor volume was monitored every day, and the tumor-bearing mice were ready for imaging once the tumor volume reached 0.5 mm^3 (tumor volume can be calculated by this equation: Volume = 0.5 * long tail * short tail *short tail). Micro-PET/CT imaging studies were performed on the IRIS Micro-PET/CT system (Inviscan SAS, France). Tumor-bearing mice were injected with approximately 11.2–14.8 MBq of [^18F]3 (200 µL) via the tail vein under anaesthetization by isoflurane. Static PET images were obtained at designated time points and were reconstructed with a 3D-OSEM algorithm using a Monte Carlo-based accurate detector model. Then, 170 sec-CT acquisition was conducted with 50 kV, 1 mA X-ray output for attenuation correction and anatomical orientation. ROIs (regions of interest) were drawn on the lung, kidney, liver, and tumor by OsiriX software. SUV (standardized uptake value) of the ROIs was directly obtained from OsiriX for each subject according to this formula: SUV = Voxal value (Bq/mL) * Body weight (kg)/(Decay corrected Dose (Bq) * 1,000 (g/kg)).
BALB/c nude mice used in this study were obtained from the Animal Center of Sichuan university. Tumor-bearing mice model were established by the subcutaneous injection of 100 µL of PBS suspension containing approximately 1*10^6 tumor cells to the body side of the subjects. The tumor volume was monitored every day and the tumor-bearing mice were ready for imaging once the tumor volume reach 0.5 mm^3 (tumor volume can be calculated by this equation: Volume = 0.5 * long tail * short tail *short tail). Micro-PET/CT imaging studies were performed on the IRIS Micro-PET/CT system (Inviscan SAS, France). Tumor-bearing mice were injected with approximately 11.2-14.8 MBq of [^18F]3 (200 µL) via tail vein under anaesthetization by isoflurane. Static PET images were obtained at designated time points and were reconstructed with a 3D-OSEM algorithm using a Monte-Carlo based accurate detector model. A 170 sec-CT acquisition was conducted with 50 kV, 1 mA X-ray output for attenuation correction and anatomical orientation. ROIs (regions of interest) were drawn on lung, kidney, liver and tumor by Osirix software. SUV (standardized uptake value) of the ROIs was directly obtained from Osirix for each subject according to this formula: SUV = Voxal value (Bq/mL) * Body weight (kg)/(Decay corrected Dose (Bq) * 1000 (g/kg)).

[2] = In vitro stability in PBS saline, 20% EtOH solution and rat serum (radio-HPLC); assay type: physicochemical; conditions: 4 h at 37°C
Protocol: The in vitro stability of [^18F]3 was performed in PBS saline, 20% EtOH solution, and rat serum. In general, a solution of [^18F]3 (50 µL, approximately 20 KBq) was added to the PBS saline (2 mL), 20% EtOH solution (2 mL), and rat serum (2 mL), and these solutions were suspended in a water bath under 37°C for […]. Samples from PBS saline and 20% EtOH solution were loaded into the analytical radio-HPLC for the detection of RCP at designated time points (0, 1, 2, and 4 h), with the same condition described previously. The samples from the rat serum were added the same volume of acetonitrile to deposit the plasma protein, and the supernatant obtained by centrifugation (×12,000 r/min, 5 min) was analyzed at corresponding time points.

U87MG cells = experiment: Cellular uptake of [^18F]3 in U87MG cells; assay type: cell-based; conditions: U87 cells
Protocol: (§1) Briefly, all cells were divided into the following two groups: A: blocking group and B: vehicle group. All cells were cultured, grouped, and plated (approximately 2*10^6 cells per well) before use. Cells were treated with [^18F]3 (74 KBq) and incubated at 37°C under a 5% CO2 atmosphere. […] Incubated at 37°C for 1 h, the medium from each well was removed, and the cells were washed twice with 1 mL of PBS. The medium and the PBS from each well were combined and counted in a Gamma counter (PerkinElmer Wizard 2470) for radioactivity counts. The cells were then handled with 1 mL of 1 M NaOH, and the lysates were also counted in the Wizard 2470 gamma counter. The uptake ratios for each group were then calculated with this equation: %Dose = […](medium counts + PBS counts + cell lysate counts).

[3] = test system: A549-FAPI cells (human FAP-expressing A549); experiment: Cellular uptake of [^18F]3 in A549-FAPI cells; assay type: cell-based
Protocol: as §1

[4] = Lipid/water partition coefficient in octanol/PBS (log D 7.4); assay type: physicochemical; conditions: pH 7.4
Protocol: The lipid/water partition coefficient of [^18F]3 was tested in octanol/PBS mixtures, following the published literature reports ([Li et al., 2019]) and presented as log D 7.4 values. Briefly, a small volume of [^18F]3 was added into an octanol/water mixture, and then, a series of diluted octanol/PBS mixtures was obtained, as described in the literature. The CPM in octanol and the PBS layer was obtained in a Wizard 2470 gamma counter (PerkinElmer) and was used to calculate the lipid/PBS partition coefficient. Several continuous and stable partition coefficient values were selected to calculate the log D 7.4 values.

[5] = A549-FAPI tumors, pre-injection of compound 3, 2 mg/kg
[6] = 1 h, pre-treatment with compound 3, 10 µM

intact [^18F]3 [2]: over 90% | logD [4]: 1.11
SMILES: N#C[C@@H]1CC(F)(F)CN1C(=O)CNC(=O)c1ccnc2ccc([18F])cc12 [[^18F]3]
Tumor-to-muscle (T/M) ratio ([1]; A549-FAPI tumors, 90 min p.i.): 4.34 | Tumor SUV, blocking group [1, 5]: lower than 0.2 | Tumor-to-muscle (T/M) ratio, blocking group [1, 5]: less than 2.0 | Tumor SUV ([1]; A549-FAPI xenografted tumors, within 90 min): greater than 0.4 | Cellular uptake ratio, blocking group (U87MG cells; [6]): 1.19% ± 0.02% | Cellular uptake ratio (U87MG cells; 1 h incubation, vehicle group): 1.50% ± 0.13% | Cellular uptake ratio, blocking group [3, 6]: 0.56% ± 0.03% | Cellular uptake ratio ([3]; 1 h incubation, vehicle group): 1.07% ± 0.01%
